The text below walks through data of US20220009894A1, “1,2,3,4-TETRAHYDROQUINOXALINE DERIVATIVE, PREPARATION METHOD THEREFOR AND APPLICATION THEREOF” (Abbisko Therapeutics Co., Ltd., priority 2019, published 2022).

The structures appear in SMILES notation.

In one test the target is T1, RORγt-LBD (Homo sapiens, UniProt P51449).
T1 sequence (P51449 269-508 limits assumed): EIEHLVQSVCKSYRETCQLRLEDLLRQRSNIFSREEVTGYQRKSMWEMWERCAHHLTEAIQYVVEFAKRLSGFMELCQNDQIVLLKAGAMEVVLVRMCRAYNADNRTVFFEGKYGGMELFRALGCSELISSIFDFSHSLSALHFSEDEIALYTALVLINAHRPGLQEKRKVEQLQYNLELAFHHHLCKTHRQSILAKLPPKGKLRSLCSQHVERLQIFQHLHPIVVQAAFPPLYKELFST
The experiment in a line: Time-resolved fluorescence resonance energy-transfer assay (TR-FRET), co-activator peptide recruitment. The format is biochemical. On the set-up: TR-FRET Biochemical Amax: unit not given here. The conditions noted are these: for EC50: His-RORγt-LBD 30 nM, SRC peptide 500 nM, agonistic activity, averages of one or more measurements, read-out: TR-FRET Biochemical EC50/; for TR-FRET Biochemical Amax: upper activation limit, His-RORγt-LBD, SRC peptide. In a few lines: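 This agonist-mode TR-FRET used 30 nM His-tagged RORγt-LBD, 500 nM biotinylated SRC peptide, 0.25 nM Eu-anti-His and 5 nM APC-streptavidin in pH 7.0 Tris/KCl buffer with DTT and Triton. A 7-concentration, 5-fold compound series was incubated at 4 °C overnight plus 1 h at room temperature, and the 665/615 nm signal was read.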

Another test concerns the target T2, RORγt (Homo sapiens, UniProt P51449).
T2 construct: The plasmid of pFN26A-RORγt-LBD and pG14.35 (Promega, Cat. No. E1370) were co-transfected into HEK 293 cells; expressed in transfected cells; host or cells: HEK 293 cells (Cat. No. GNHu18)
T2 sequence (P51449 269-508 limits assumed): T1 sequence (P51449 269-508 limits assumed)
Put plainly: RORγt cellular reporter gene detection assay.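 As to Cellular Reporter Assay Amax: Ursolic Acid added as 5 µL of 20 µM medium per well.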 The format is cell-based. The conditions noted are these: 24 hrs; for EC50: HEK 293 cells co-transfected with pFN26A-RORγt-LBD and pG14.35, in presence of antagonist Ursolic acid, top concentration 50 μM; for Cellular Reporter Assay Amax: upper activation limit, HEK 293 cells, in presence of antagonist Ursolic acid. In short, it runs like this: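 Compounds, titrated 4-fold from a 50 μM top concentration, were added with Ursolic acid to HEK293 cells carrying a RORγt-LBD plasmid and a reporter plasmid. After 24 h at 37° C, dual firefly/Renilla luciferase readout; four-parameter curves gave EC50 and maximal activation (Amax).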

`CC(C)(C(=O)O)N1CCN2c3ccc(/C=C/c4c(Cl)cccc4C(F)(F)F)cc3N(S(=O)(=O)c3cccc(C(F)(F)F)c3)C[C@@H]2C1` [Example 55, (S,E)-2-(8-(2-chloro-6-(trifluoro-methyl)styryl)-6-((3-(trifluoro-methyl)phenyl)sulfonyl)-1,2,4,4a,5,6-hexahydro-3H-pyrazino [1,2-a]quinoxalin-3-yl)-2-methylpropanoic acid]: on RORγt-LBD, the EC50 was determined as 46.6 nM and the “TR-FRET Biochemical Amax” value was found to be 0.78. For the same compound, on RORγt, the EC50 came to 508 nM and the “Cellular Reporter Assay Amax” value is on record as 2.7.
For `C/C(=C\c1ccc2c(c1)N(S(=O)(=O)c1cccc(C(F)(F)F)c1)C[C@@H]1CN(C(C)(C)C(=O)O)CCN21)c1c(F)cccc1Cl` [Example 56, (S,E)-2-(8-(2-(2-chloro-6-fluoro-phenyl)prop-1-en-1-yl)-6-((3-(trifluoromethyl)phenyl)sulfo-nyl)-1,2,4,4a,5,6-hexahydro-3H-pyrazino[1,2-a]quinoxalin-3-yl)-2-methylpropanoic acid], in that order: 44.5 nM, 0.71, 622 nM and 3.2.
In the same order, the values of `CCOC(=O)C(=O)N1CCN2c3ccc(/C=C(\C)c4c(F)cccc4Cl)cc3N(S(=O)(=O)c3cccc(C(F)(F)F)c3)C[C@@H]2C1` [Example 57, ethyl (S,E)-2-(8-(2-(2-chloro-6-fluorophenyl)prop-1-en-1-yl)-6-((3-(trifluoromethyl)phenyl)sulfonyl)-1,2,4,4a,5,6-hexahydro-3H-pyrazino[1,2-a]quinoxalin-3-yl)-2-oxoacetate] are 6.54 nM, 0.89, 304 nM and 3.2.
Take `CCOC(=O)C(=O)N1CCN2c3ccc(/C=C/c4c(Cl)cccc4C(F)(F)F)cc3N(S(=O)(=O)c3cccc(C(F)(F)F)c3)C[C@@H]2C1` [Example 58, ethyl (S,E)-2-(8-(2-chloro-6-(trifluoromethyl)styryl)-6-((3-(trifluoromethyl)phenyl)sulfonyl)-1,2,4,4a,5,6-hexahydro-3H-pyrazino[1,2-a]quinoxalin-3-yl)-2-oxoacetate]: at RORγt-LBD, the EC50 is 19.4 nM and the “TR-FRET Biochemical Amax” value was found to be 0.79. Further, at RORγt, the EC50 worked out at 1400 nM and the “Cellular Reporter Assay Amax” value came out at 4.0.
For `NC(=O)CN1CCN2c3ccc(/C=C/c4c(Cl)cccc4C(F)(F)F)cc3N(S(=O)(=O)c3cccc(C(F)(F)F)c3)C[C@@H]2C1` [Example 59, (S,E)-2-(8-(2-chloro-6-(trifluoromethyl)styryl)-6-((3-(trifluoromethyl)phenyl)sulfonyl)-1,2,4,4a,5,6-hexahydro-3H-pyrazino[1,2-a]quinoxalin-3-yl)acetamide], at RORγt-LBD, the EC50 was found to be 100 nM and the “TR-FRET Biochemical Amax” value turned out to be 1.10. Further, on RORγt, the EC50 is 602 nM and the “Cellular Reporter Assay Amax” value worked out at 3.5.
In the same order, the values of `NC(=O)N1CCN2c3ccc(/C=C/c4c(Cl)cccc4C(F)(F)F)cc3N(S(=O)(=O)c3cccc(C(F)(F)F)c3)C[C@@H]2C1` [Example 60, (S,E)-8-(2-chloro-6-(trifluoromethyl)styryl)-6-((3-(trifluoromethyl)phenyl)sulfonyl)-1,2,4,4a,5,6-hexahydro-3H-pyrazino[1,2-a]quinoxalin-3-carboxamide] are 61.4 nM, 0.98, 249 nM and 2.8.
With `NC(=O)N1CCN2c3ccc(-c4cc(F)cc(OC(F)F)c4)cc3N(S(=O)(=O)c3cccc(C(F)(F)F)c3)C[C@@H]2C1` [Example 61, (S)-8-(3-(difluoromethoxy)-5-fluorophenyl)-6-((3-(trifluoro-methyl)phenyl)sulfonyl)-1,2,4,4a,5,6-hexahydro-3H-pyra-zino[1,2-a]quinoxaline-3-car-boxamide], on RORγt-LBD, the EC50 is 86 nM and the “TR-FRET Biochemical Amax” value is 0.69. Further, at RORγt, the EC50 was 469 nM and the “Cellular Reporter Assay Amax” value turned out to be 3.0.
For `C/C(=C\c1ccc2c(c1)N(S(=O)(=O)c1cccc(C(F)(F)F)c1)C[C@@H]1CN(C(N)=O)CCN21)c1c(F)cccc1Cl` [Example 62, (S,E)-8-(2-(2-chloro-6-fluoro-phenyl)prop-1-en-1-yl)-6-((3-(trifluoromethyl)phenyl)sulfo-nyl)-1,2,4,4a,5,6-hexahydro-3H-pyrazino[1,2-a]quinoxa-line-3-carboxamide], in that order: 25.2 nM, 0.69, 297 nM and 3.8.
In the same order, the values of `C/C(=C\c1ccc2c(c1)N(S(=O)(=O)c1cccc(C(F)(F)F)c1)C[C@@H]1CN(C(N)=S)CCN21)c1c(F)cccc1Cl` [Example 63, (S,E)-8-(2-(2-chloro-6-fluorophenyl)prop-1-en-1-yl)-6-((3-(trifluoromethyl)phenyl)sulfonyl)-1,2,4,4a,5,6-hexahydro-3H-pyrazino[1,2-a]quinoxaline-3-carbothioamide] are 23.5 nM, 0.89, 308 nM and 5.0.
`NC(=S)N1CCN2c3ccc(-c4cc(F)cc(OC(F)F)c4)cc3N(S(=O)(=O)c3cccc(C(F)(F)F)c3)C[C@@H]2C1` [Example 64, (S)-8-(3-(difluoromethoxy)-5-fluorophenyl)-6-((3-(trifluoro-methyl)phenyl)sulfonyl)-1,2,4,4a,5,6-hexahydro-3H-pyrazino [1,2-a]quinoxaline-3-carbo-thioamide]: at RORγt-LBD, the EC50 turned out to be 47.8 nM and the “TR-FRET Biochemical Amax” value is reported as 0.80. Besides, at RORγt, the EC50 is 563 nM and the “Cellular Reporter Assay Amax” value was determined as 2.7.
Turning to `NC(=S)N1CCN2c3ccc(/C=C/c4c(Cl)cccc4C(F)(F)F)cc3N(S(=O)(=O)c3cccc(C(F)(F)F)c3)C[C@@H]2C1` [Example 65, (S,E)-8-(2-chloro-6-(trifluoro-methyl)styryl)-6-((3-(trifluoro-methyl)phenyl)sulfonyl)-1,2,4,4a,5,6-hexahydro-3H-pyrazino [1,2-a]quinoxaline-3-carbothio-amide], on RORγt-LBD, the EC50 is 8.4 nM and the “TR-FRET Biochemical Amax” value was 0.89. In addition, at RORγt, the EC50 is 391 nM and the “Cellular Reporter Assay Amax” value was 2.8.
In the same order, the values of `C/C(=C\c1ccc2c(c1)N(S(=O)(=O)c1cccc(C(F)(F)F)c1)C[C@@H]1CN(S(N)(=O)=O)CCN21)c1c(F)cccc1Cl` [Example 66, (R,E)-8-(2-(2-chloro-6-fluorophenyl)prop-1-en-1-yl)-6-((3-(trifluoromethyl)phenyl)sulfonyl)-1,2,4,4a,5,6-hexahydro-3H-pyrazino[1,2-a]quinoxaline-3-sulfonamide] are 33.6 nM, 0.99, 523 nM and 5.6.
In the case of `NS(=O)(=O)N1CCN2c3ccc(-c4cc(F)cc(OC(F)F)c4)cc3N(S(=O)(=O)c3cccc(C(F)(F)F)c3)C[C@@H]2C1` [Example 67, (R)-8-(3-(difluoromethoxy)-5-fluoro-phenyl)-6-((3-(trifluorometh-yl)phenyl)sulfonyl)-1,2,4,4a,5,6-hexahydro-3H-pyrazino[1,2-a]quinoxaline-3-sulfonamide], at RORγt-LBD, the EC50 is 19.7 nM and the “TR-FRET Biochemical Amax” value is 0.87. On RORγt, the EC50 was 158 nM and the “Cellular Reporter Assay Amax” value turned out to be 3.3.
